According to patent US20090131494A1, “Non-Nucleoside Reverse Transcriptase Inhibitors” (priority 2005, published 2009):
pIC50: −log10 of the molar value.

Each molecule was assayed on acute HIV infection of T-lymphoid cells (assay: Assay for inhibition of HIV replication (spread assay)). Conditions: Human immunodeficiency virus 1, T-lymphoid, read-out: IC95, inhibition of HIV replication in spread assay.
Type: cell-based
Procedure: An assay for the inhibition of acute HIV infection of T-lymphoid cells (alternatively referred to herein as the “spread assay”) was conducted in accordance with Vacca, J. P. et al., Proc. Natl. Acad. Sci. USA 1994, 91: 4096.
In the case of NC(=O)c1[nH]c2ccc(Cl)cc2c1S(=O)(=O)CC1CCCCC1 [Example 33, 5-chloro-3-[(cyclohexylmethyl)sulfonyl]-1H-indole-2-carboxamide], the IC95 was no more than 10 µM. CCOC(=O)c1[nH]c2ccc(Cl)cc2c1SCC1CCCCC1 [Example 11, ethyl 5-chloro-3-[(cyclohexylmethyl)thio]-1H-indole-2-carboxylate] was tested, and the IC95 was no more than 10 µM. For CCOC(=O)c1[nH]c2ccc(Cl)cc2c1S(=O)(=O)CC1CCCCC1 [Example 22, ethyl 5-chloro-3-[(cyclohexylmethyl)sulfonyl]-1H-indole-2-carboxylate], the IC95 was no more than 10 µM.

Same assay, conditions: Human immunodeficiency virus 1; T-lymphoid cells; tested up to 10 micromolar; read-out: IC95, inhibition of HIV replication in spread assay
CCOC(=O)c1[nH]c2ccc(Cl)cc2c1SCCCC(F)(F)F [Example 4, ethyl 5-chloro-3-[(4,4,4-trifluorobutyl)thio]-1H-indole-2-carboxylate] was tested, and the IC95 was greater than 10 µM. For NC(=O)c1[nH]c2ccc(Cl)cc2c1S(=O)(=O)C1CCCC1 [Example 30, 5-chloro-3-(cyclopentylsulfonyl)-1H-indole-2-carboxamide], the IC95 was no more than 10 µM. CCOC(=O)c1[nH]c2ccc(Cl)cc2c1SC1CC1 [Example 6, ethyl 5-chloro-3-(cyclopropylthio)-1H-indole-2-carboxylate] gave an IC95 greater than 10 µM. In the case of CCOC(=O)c1[nH]c2ccc(Cl)cc2c1S(=O)(=O)C1CCC1 [Example 19, ethyl 5-chloro-3-(cyclobutylsulfonyl)-1H-indole-2-carboxylate], the IC95 was greater than 10 µM. NC(=O)c1[nH]c2ccc(Cl)cc2c1S(=O)(=O)C1CCCCC1 [Example 31, 5-chloro-3-(cyclohexylsulfonyl)-1H-indole-2-carboxamide] was tested, and the IC95 was no more than 10 µM. NC(=O)c1[nH]c2ccc(Cl)cc2c1S(=O)(=O)CC(F)(F)C(F)F [Example 38, 5-chloro-3-[(2,2,3,3-tetrafluoropropyl)sulfonyl]-1H-indole-2-carboxamide] gave an IC95 greater than 10 µM. Molecule NC(=O)c1[nH]c2ccc(Cl)cc2c1S(=O)(=O)CC1CC(F)(F)C1(F)F (stereo not drawn) [Example 37] has an IC95 of no more than 10 µM. Work on CCOC(=O)c1[nH]c2ccc(Cl)cc2c1SCCC(F)(F)F [Example 3, ethyl 5-chloro-3-[(3,3,3-trifluoropropyl)thio]-1H-indole-2-carboxylate] yielded an IC95 of no more than 10 µM. CCOC(=O)c1[nH]c2ccc(Cl)cc2c1S(=O)(=O)CCC1CC1 [Example 18, ethyl 5-chloro-3-[(2-cyclopropylethyl)sulfonyl]-1H-indole-2-carboxylate] showed an IC95 of no more than 10 µM. Work on NC(=O)c1[nH]c2ccc(Cl)cc2c1S(=O)(=O)C1CC1 [Example 26, 5-chloro-3-(cyclopropylsulfonyl)-1H-indole-2-carboxamide] yielded an IC95 of no more than 10 µM. With NC(=O)c1[nH]c2ccc(Cl)cc2c1S(=O)(=O)C1C=CCCC1 (stereo not drawn) [Example 32, 5-chloro-3-(cyclohex-2-en-1-ylsulfonyl)-1H-indole-2-carboxamide] the IC95 was no more than 10 µM. For CCOC(=O)c1[nH]c2ccc(Cl)cc2c1S(=O)(=O)C1CCCC1 [Example 20, ethyl 5-chloro-3-(cyclopentylsulfonyl)-1H-indole-2-carboxylate], the IC95 was greater than 10 µM. With CCOC(=O)c1[nH]c2ccc(Cl)cc2c1SC1CCCC1 [Example 10, ethyl 5-chloro-3-(cyclopentylthio)-1H-indole-2-carboxylate] the IC95 was no more than 10 µM. CC(CC(F)(F)F)S(=O)(=O)c1c(C(N)=O)[nH]c2ccc(Cl)cc12 (stereo not drawn) [Example 34, 5-chloro-3-[(3,3,3-trifluoro-1-methylpropyl)sulfonyl]-1H-indole-2-carboxamide] gave an IC95 of no more than 10 µM. CCOC(=O)c1[nH]c2ccc(Cl)cc2c1SCC(F)(F)F [Example 2, ethyl 5-chloro-3-[(2,2,2-trifluoroethyl)thio]-1H-indole-2-carboxylate] gave an IC95 greater than 10 µM. CCOC(=O)c1[nH]c2ccc(Cl)cc2c1SC1CCC1 [Example 9, ethyl 5-chloro-3-(cyclobutylthio)-1H-indole-2-carboxylate] gave an IC95 of no more than 10 µM. For NC(=O)c1[nH]c2ccc(Cl)cc2c1S(=O)(=O)CC1CCC1 [Example 23, 5-Chloro-3-(cyclobutylmethylsulfonyl)-1H-indole-2-carboxamide], the IC95 was no more than 10 µM. Work on CCOC(=O)c1[nH]c2ccc(Cl)cc2c1S(=O)(=O)CC1CCC1 [Example 13, Ethyl 5-chloro-3-(cyclobutylmethylsulfonyl)-1H-indole-2-carboxylate] yielded an IC95 of no more than 10 µM. In the case of CC(C)CCS(=O)(=O)c1c(C(=O)NCc2nccn2C)[nH]c2ccc(Cl)cc12 [Example 39, 5-Chloro-3-[(3-methylbutyl)sulfonyl]-N-[(1-methyl-1H-imidazol-2-yl)methyl]-1-indole-2-carboxamid-indole-2-carboxamide], the IC95 was no more than 10 µM. In the case of NC(=O)c1[nH]c2ccc(Cl)cc2c1S(=O)(=O)CCC1CC1 [Example 28, 5-chloro-3-[(2-cyclopropylethyl)sulfonyl]-1H-indole-2-carboxamide], the IC95 was no more than 10 µM. With CCOC(=O)c1[nH]c2ccc(Cl)cc2c1SCC(F)(F)C(F)(F)F [Example 5, ethyl 5-chloro-3-[(2,2,3,3,3-pentafluoropropyl)thio]-1H-indole-2-carboxylate] the IC95 was no more than 10 µM. Molecule CCOC(=O)c1[nH]c2ccc(Cl)cc2c1S(=O)(=O)CCCC(F)(F)F [Example 15, ethyl 5-chloro-3-[(4,4,4,-trifluorobutyl)sulfonyl]-1H-indole-2-carboxylate] has an IC95 greater than 10 µM. In the case of NC(=O)c1[nH]c2ccc(Cl)cc2c1S(=O)(=O)CC1CC1 [Example 27, 5-chloro-3-[(cyclopropylmethyl)sulfonyl]-1H-indole-2-carboxamide], the IC95 was no more than 10 µM. For NC(=O)c1[nH]c2ccc(Cl)cc2c1S(=O)(=O)CCC(F)(F)F [Example 24, 5-chloro-3-[(3,3,3-trifluoropropyl)sulfonyl]-1H-indole-2-carboxamide], the IC95 was no more than 10 µM. CC(C)CCS(=O)(=O)c1c(C(=O)NCc2n[nH]c3ccccc23)[nH]c2ccc(Cl)cc12 [Example 40, 5-Chloro-N-(1H-indazol-3-ylmethyl)-3-[(3-methylbutyl)sulfonyl]-1H-indole-2-carboxamide] showed an IC95 of no more than 10 µM. CCOC(=O)c1[nH]c2ccc(Cl)cc2c1SCCC1CC1 [Example 8, ethyl 5-chloro-3-[(2-cyclopropylethyl)thio]-1H-indole-2-carboxylate] gave an IC95 of no more than 10 µM. CCOC(=O)c1[nH]c2ccc(Cl)cc2c1S(=O)(=O)CCC(F)(F)F [Example 14, ethyl 5-chloro-3-[(3,3,3-trifluoropropyl)sulfonyl]-1H-indole-2-carboxylate] showed an IC95 greater than 10 µM. NC(=O)c1[nH]c2ccc(Cl)cc2c1S(=O)(=O)CCCC(F)(F)F [Example 25, 5-chloro-3-[(4,4,4-trifluorobutyl)sulfonyl]-1H-indole-2-carboxamide] gave an IC95 of no more than 10 µM. CCOC(=O)c1[nH]c2ccc(Cl)cc2c1SCC1CCC1 [Example 1, Ethyl 5-chloro-3-(cyclobutylmethylthio)-1H-indole-2-carboxylate] gave an IC95 of no more than 10 µM. NC(=O)c1[nH]c2ccc(Cl)cc2c1S(=O)(=O)C1CCC1 [Example 29, 5-chloro-3-(cyclobutylsulfonyl)-1H-indole-2-carboxamide] showed an IC95 of no more than 10 µM. CCOC(=O)c1[nH]c2ccc(Cl)cc2c1S(=O)(=O)CC1CC1 [Example 17, ethyl 5-chloro-3-[(cyclopropylmethyl)sulfonyl]-1H-indole-2-carboxylate] was tested, and the IC95 was no more than 10 µM. Molecule CCOC(=O)c1[nH]c2ccc(Cl)cc2c1S(=O)(=O)C1CCCCC1 [Example 21, ethyl 5-chloro-3-(cyclohexylsulfonyl)-1H-indole-2-carboxylate] has an IC95 greater than 10 µM. In the case of CCOC(=O)c1[nH]c2ccc(Cl)cc2c1S(=O)(=O)C1CC1 [Example 16, ethyl 5-chloro-3-(cyclopropylsulfonyl)-1H-indole-2-carboxylate], the IC95 was greater than 10 µM. CCOC(=O)c1[nH]c2ccc(Cl)cc2c1SC1CCCCC1 [Example 12, Ethyl 5-chloro-3-(cyclohexylthio)-1H-indole-2-carboxylate] gave an IC95 of no more than 10 µM.

Each molecule was assayed against T1, mutant HIV reverse transcriptase, K103N mutation (Human immunodeficiency virus type 1 group M subtype B, UniProt P04585, K690N) (assay: Analogous RT inhibition assay, K103N mutant). Conditions: RT with K103N mutation.
T1 construct: made in house
Type: biochemical
Procedure: Analogous assays were conducted substituting mutant HIV strains to determine the […] inhibition of compounds of the present invention against mutant HIV reverse transcriptase. In one strain the reverse transcriptase has the Y181C mutation and in the other strain the reverse transcriptase has the K103N mutation. The mutations were generated with the […] site-directed mutagenesis kit (Stratagene).
CC(C)CCS(=O)(=O)c1c(C(=O)NCc2nccn2C)[nH]c2ccc(Cl)cc12 [Example 39, 5-Chloro-3-[(3-methylbutyl)sulfonyl]-N-[(1-methyl-1H-imidazol-2-yl)methyl]-1-indole-2-carboxamid-indole-2-carboxamide] showed a pIC50 greater than 5.70. With CC(C)CCS(=O)(=O)c1c(C(=O)NCc2n[nH]c3ccccc23)[nH]c2ccc(Cl)cc12 [Example 40, 5-Chloro-N-(1H-indazol-3-ylmethyl)-3-[(3-methylbutyl)sulfonyl]-1H-indole-2-carboxamide] the pIC50 was greater than 5.70.
